From BigSolDB 2.1

COC(=O)[C@H]1[C@H]2C[C@@H]3c4[nH]c5cc(OC)ccc5c4CCN3C[C@H]2C[C@@H](OC(=O)c2cc(OC)c(OC)c(OC)c2)[C@@H]1OC
Settings	solubility (mole fraction)
in PEG-400, 298.15 K	0.00144
in PEG-400, 308.15 K	0.00206
in PEG-400, 318.15 K	0.00281
in PEG-400, 328.15 K	0.00373
in PEG-400, 338.15 K	0.0047

solubility (mole fraction)
Settings	in ethanol	in ethyl acetate	in ethylene glycol	in isopropanol	in propylene glycol	in transcutol	in water
298.15 K	9.16e-06	0.000521	5.3e-05	2.43e-05	2.88e-05	0.000769	9.71e-07
308.15 K	1.25e-05	0.000608	7.04e-05	3.16e-05	3.38e-05	0.000906	1.25e-06
318.15 K	1.59e-05	0.000723	9.28e-05	4.02e-05	4e-05	0.0011	1.57e-06
328.15 K	2.07e-05	0.000868	0.000114	4.95e-05	4.63e-05	0.00137	1.9e-06
338.15 K	2.53e-05	0.00104	0.000143	6.07e-05	5.5e-05	0.00161	2.25e-06
